“And” between values parts separate entries of the source, which are not always exact repeats. Equal entries are not always repeated. “Also recorded” adds a separate entry of the source.
How the values were obtained:
CIA = assay: Collagen-induced arthritis (CIA) in DBA/1 mice; format: in vivo; conditions: 100 mg/kg/day OR-1050 p.o. in HRC-6; AUC day 24 to 48, p<0.09
liver triglycerides = assay: Liver triglycerides after oral dosing in C57BL/6 mice; format: in vivo
Description: […] A small piece of the liver (˜200 mg) was weighed and extracted to determine triglyceride content. Glycerol was liberated from liver triglycerides by hydrolysis in base. The liver fragment was incubated overnight at 55° C. in 0.35 mls of ethanolic KOH (2 parts EtOH: 1 part 30% KOH) in a closed tube. A solution of 50% ethanol in water was added to bring the volume of each tube to 1.0 ml. The solution was cleared of debris by centrifugation, and the resulting supernatant increased to 1.2 ml with further addition of 50% ethanol. Aqueous 1 M MgCl2 (215 μl) was added to 200 μl of the supernatant, and the mixture was cleared by centrifugation again after standing 10 min on ice. Glycerol levels were measured with the Sigma Free Glycerol Reagent (Sigma-Aldrich, St. Louis, Mo.) according to the manufacturer's instructions. The triglyceride concentration (in milligrams per gram of liver wet weight) was determined by assuming average molecular weight of 1000 daltons for each molecule of triglyceride.

[1] = Pharmacokinetics of OR-1050 in CD-1 mice, oral gavage; format: in vivo
Description: FIG. 12B. Bioavailability of OR-1050. OR-1050 was dosed in CD-1 mice at […] in HRC-6, a proprietary formulation that is commercially available from Pharmatek (San Diego, Calif.). Blood samples from triplicate animals were tested for levels of OR-1050 at multiple time points.
Pharmacokinetics of OR-1050 in CD-1 mice was analyzed at independent bioanalytical laboratory. Male CD-1 mice were treated via oral gavage with OR-1050 at 5 mg/kg in HRC-6. Blood was collected via retro-orbital puncture in tubes containing sodium heparin anticoagulant at 0, 5, 15, and 30 min, and at 1, 2, 4, 6, 8 and 24 hr after oral administration. The concentration of OR-1050 in plasma was determined using an HPLC/MS/MS method.

[2] = tested on: splenic TH-17 and TH1 cells; assay: Splenic TH-17 and TH1 cells in MOG-immunized C57BL/6 mice; format: in vivo; conditions: 100 mg/kg oral gavage for 9 days
Description: C57BL/6 female mice were immunized with 150 μg […] on study day 0. Mice were treated with either OR-1050 at 100 mg/kg or with vehicle (HRC-6) by oral gavage for 9 days starting day O, Splenocytes were collected at Day 9 and stained for TH-17 (CD4^+CD8^−IL17^+) and TH1 (CD4^+CD8^−IFNγ^+) cells. Statistics were performed by Student's t-test.

EAE = EAE model, C57BL/6 mice immunized with MOG35-55; format: in vivo; conditions: for median day of onset of symptoms (clinical score 1 or greater): oral gavage twice a day, corn oil vehicle day 18
[3] = tested on: IL-17 release from CD4+ naïve murine T cells; assay: IL-17 release into culture medium during TH-17 differentiation (ELISA); format: cell-based, mouse; conditions: 3 μM, in the presence or absence of 3 μM OR-12872, day 4 (FIG. 10)
Description: FIG. 10. IL-17 release into culture medium was measured four days after induction of TH-17 differentiation in CD4^+ naïve murine T cells, following the methods of FIG. 7. Each antagonist (OR-885, OR-1050, OR-13571, and OR-2161) was incubated in the cultures at 3 μM, in the presence or absence of OR-12872, also at 3 μM. On day 4, culture supernatants were saved and IL-17 measured by ELISA.
Purified CD4^+CD62L^+ T cells were plated in 24-well plates with 2−4×10^5 cells in 700 ul volume of RPMI 1640 media containing 10% heat-inactivated FCS, 100 IU penicillin, 100 μg/ml streptomycin, 1× non-essential amino acids, 1 mM pyruvate, 2 mM glutamine, and 50 μM […] (Veldhoen, Hocking et al. 2006). T cells were stimulated with exogenous cytokines and anti-CD3/anti-CD28 conjugated Dynabeads (Dynal Biotech, Oslo) at a 1:1 ratio of beads to cells. Exogenous cytokines used were: 4 ng/ml TGF-β, 20 ng/ml of IL-6, or 10 ng/ml IL-12. RORγ agonist and antagonist ligands, dissolved in DMSO, were added directly to cell cultures, to a final concentration of 0.01%. Cytokines and RORγ ligands were added immediately after cell plating.
ELISA kits for mouse IL-17 and human IL-17 were from eBioscience (San Diego, Calif.). ELISA assays were performed following the manufacturer's protocol. Certain samples were diluted 20-fold to avoid maximization of enzymatic signals. […]

Structure (SMILES): CCN(c1ccc(C(O)(C(F)(F)F)C(F)(F)F)cc1)S(=O)(=O)c1ccc([N+](=O)[O-])cc1 [OR-1050, N-Ethyl-4-nitro-N-[4-(2,2,2-trifluoro-1-hydroxy-1-trifluoromethyl-ethyl)-phenyl]-benzenesulfonamide]
- disease course of CIA (hind limb clinical scores) (CIA): partly suppressed
- Liver triglycerides (liver triglycerides; OR-1050 100 mg/kg (50 mg/kg twice per day by gavage, corn oil) for 7 days, vehicle 34.7 ± 5.7): 119.5 ± 18.8 mg/g
- liver triglycerides, in words (liver triglycerides; daily exposure to 100 mg/kg OR-1050, six day study): markedly elevated
- blood levels suggested for a higher dosage ([1]; extrapolated to 50 mg/kg): 1 μg/ml and ~2 μM
- oral bioavailability, in words ([1]; mouse, in vivo, po): modest bioavailability; also recorded: orally-bioavailable; also recorded: orally bioavailable
- change in TH1 cells [2]: no change in TH1 cells
- inhibition of splenic TH-17 cells ([2]; HRC-6, p<0.05, n=8-10): 29%
- median day of onset of symptoms (clinical score 1 or greater) (EAE; 30 mg/kg total daily dose): 16 days
- onset of EAE, in words (EAE; 100 mg/kg OR-1050 per day versus vehicle): slows the onset of EAE; also recorded: significantly (p<0.05) delayed
- median day of onset of symptoms (clinical score 1 or greater) (EAE; 100 mg/kg total daily dose, p<0.05): 26 days
- progress of disease and weight loss, in words (EAE; high dose (50 mg/kg, 2× per day), FIG. 11A, 11B): inhibits progress of the disease and weight loss
- inflammatory infiltration in the spinal cord (EAE; high dose, FIG. 11C, p<0.07, Mann-Whitney): reduced

Structure (SMILES): COC(C)CCC(C)C1CCC2C3CC(O)C4CC(O)CCC4(C)C3CCC12C (stereo not shown) [OR-12872, 17-(4-Methoxy-1-methyl-pentyl)-10,13-dimethyl-hexadecahydro-cyclopenta[a]phenanthrene-3,6-diol]
- IL-17 release during TH-17 differentiation [3]: reverses the effect of each of the antagonists
